Data taken from article PMC7812606 (ACS Medicinal Chemistry Letters, 2020).
“Also recorded” adds a separate entry of the source.

Key:
JNK3 = JNK3 (Homo sapiens, UniProt P53779); assay type: biochemical; details: JNK3 or JNK1
JNK2 = JNK2 (Homo sapiens, UniProt P45984); assay type: biochemical; details: isoform selectivity, fold
[1] = system: APP^T668 phosphorylation in primary neurons; assay: Cell-based inhibition of APP T668 phosphorylation; details: concentration as low as 10 nM
[2] = target: panel of ∼374 wild-type kinases; assay: Kinase panel profiling, overall; assay type: biochemical; details: 17 and 25 at 5 μM, 27 at 10 μM
In vivo brain exposure = details: mice

JNK3, sequence (P53779 whole entry, canonical isoform): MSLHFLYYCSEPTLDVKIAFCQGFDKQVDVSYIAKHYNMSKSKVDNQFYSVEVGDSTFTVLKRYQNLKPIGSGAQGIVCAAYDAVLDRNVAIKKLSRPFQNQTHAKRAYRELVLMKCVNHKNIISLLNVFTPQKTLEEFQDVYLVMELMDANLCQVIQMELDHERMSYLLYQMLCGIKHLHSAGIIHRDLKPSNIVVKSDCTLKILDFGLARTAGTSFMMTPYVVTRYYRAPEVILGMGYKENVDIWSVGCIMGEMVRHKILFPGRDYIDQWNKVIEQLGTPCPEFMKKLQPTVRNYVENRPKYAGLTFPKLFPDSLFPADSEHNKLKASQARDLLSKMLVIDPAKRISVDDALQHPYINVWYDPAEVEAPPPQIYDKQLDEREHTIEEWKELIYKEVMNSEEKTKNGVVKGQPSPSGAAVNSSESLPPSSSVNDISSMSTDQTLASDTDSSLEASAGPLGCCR
JNK2, sequence (P45984 whole entry, canonical isoform): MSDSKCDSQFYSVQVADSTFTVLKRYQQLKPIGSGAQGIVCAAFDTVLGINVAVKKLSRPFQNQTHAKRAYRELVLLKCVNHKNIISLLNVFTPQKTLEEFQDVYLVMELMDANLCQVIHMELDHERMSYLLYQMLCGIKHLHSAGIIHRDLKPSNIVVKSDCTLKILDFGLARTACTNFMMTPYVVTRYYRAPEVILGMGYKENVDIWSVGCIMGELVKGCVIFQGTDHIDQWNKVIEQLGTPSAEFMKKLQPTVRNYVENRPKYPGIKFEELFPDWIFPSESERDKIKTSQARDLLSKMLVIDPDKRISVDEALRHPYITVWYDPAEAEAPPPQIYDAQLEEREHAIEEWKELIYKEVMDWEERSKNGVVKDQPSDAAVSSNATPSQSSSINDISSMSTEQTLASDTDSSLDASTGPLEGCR

Row | Structure (SMILES) | kinases with significant inhibition (>80% inhibition) in panel [2] | inhibition of phosphorylation of residue T668 of APP [1] | other results
1 | O=C(Nc1cnn(-c2nc(C(=O)NC3CNC3)cs2)c1)Nc1ccccc1Cl [Compound 3] | – | – | inhibition of JNK3 and JNK1 in words (JNK3): no inhibitions
2 | O=C(Nc1cnn(-c2csc(C(=O)N[C@@H]3CCOC3)c2)c1)Nc1ccccc1Cl [Compound 16] | – | – | R: ratio of IC50 values for JNK2 over JNK3 (JNK2): > 250
3 | O=C(Nc1cnn(-c2csc(C(=O)NC3COC3)c2)c1)Nc1ccccc1Cl [Compound 17] | significant inhibition to only JNK3; also recorded: against only JNK3 | significantly inhibited | brain penetration (In vivo brain exposure; po dosing): brain penetrant; oral bioavailability (In vivo brain exposure; po dosing): has oral bioavailability; brain concentration (In vivo brain exposure; po, 10 mg/kg, 1 h after dosing): 1080 nM; plasma concentration (In vivo brain exposure; po, 10 mg/kg, 1 h after dosing): 960 nM
4 | O=C(Nc1cnn(-c2csc(C(=O)NC3COC3)c2)c1)Nc1ccc(F)cc1Cl [Compound 26] | – | significantly inhibited | –
5 | Cc1sc(C(=O)N[C@@H]2CCOC2)cc1-n1cc(NC(=O)Nc2c(F)cccc2Cl)cn1 [Compound 28] | – | significantly inhibited | –

Second part, led by results:

Row | kinases with significant inhibition (>80% inhibition) in panel [2] | Structure (SMILES) | inhibition of phosphorylation of residue T668 of APP [1] | other results
6 | against only JNK3 | O=C(Nc1cnn(-c2csc(C(=O)NC3COC3)c2)c1)Nc1c(F)cccc1Cl [Compound 25] | – | –
7 | against only JNK3 | Cc1sc(C(=O)NC2COC2)cc1-n1cc(NC(=O)Nc2c(F)cccc2Cl)cn1 [Compound 27] | – | –
